Experiments:
Dgt = target: T1, Dgt (Escherichia coli, UniProt P15723); assay: discontinuous HPLC of deoxyguanosine, Michaelis-Menten fit; assay type: biochemical; conditions: 20 mM Tris-HCl pH 8.0; 5 mM MgCl2; 30 °C; Dgt 0.2 nM hexamer
T1 sequence (P15723 2-505): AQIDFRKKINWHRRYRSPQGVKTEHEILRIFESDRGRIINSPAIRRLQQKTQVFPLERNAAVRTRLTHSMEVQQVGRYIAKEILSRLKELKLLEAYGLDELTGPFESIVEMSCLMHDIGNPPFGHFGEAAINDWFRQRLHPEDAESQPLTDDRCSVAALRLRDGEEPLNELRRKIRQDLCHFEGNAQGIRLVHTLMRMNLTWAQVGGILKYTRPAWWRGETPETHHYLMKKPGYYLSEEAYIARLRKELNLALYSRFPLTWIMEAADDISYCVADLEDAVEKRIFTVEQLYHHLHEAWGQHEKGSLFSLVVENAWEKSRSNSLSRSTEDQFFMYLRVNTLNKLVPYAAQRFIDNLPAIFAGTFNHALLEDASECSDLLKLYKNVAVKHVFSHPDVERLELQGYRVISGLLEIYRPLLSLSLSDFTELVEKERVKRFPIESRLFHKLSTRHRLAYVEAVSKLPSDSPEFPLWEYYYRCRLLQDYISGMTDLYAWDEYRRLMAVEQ

[1] = tested on: Purine Nucleoside Phosphorylase (PNPase; EC 2.4.2.1); assay: XOD-coupled absorbance at […] nm, initial velocities, Michaelis-Menten fit; assay type: biochemical; conditions: 100 mM Tris-HCl pH 8; 5 mM KH2PO4; PNPase 50 mU/mL; XOD 500 mU/mL as coupling enzyme

Compound | Km (Dgt) | Km [1] [µM]
Nc1nc2c(ncn2[C@H]2C[C@H](O)[C@@H](COP(=O)(O)OP(=O)(O)OP(=O)(O)O)O2)c(=O)[nH]1 [dGTP] | the best fit to the data is a simple Michaelis-Menten curve | –
Nc1nc2c(ncn2[C@H]2C[C@H](O)[C@@H](CO)O2)c(=O)[nH]1 [deoxyguanosine] | – | 110 ± 13
